Drawing on ChEMBL document CHEMBL3351770, “Synthesis, antioxidant and cytoprotective evaluation of potential antiatherogenic phenolic hydrazones. A structure-activity relationship insight” (Bioorg Med Chem, 2014), this text covers IC50, Activity and inhibition for 36 compounds.

pIC50: −log10 of the molar value.

Data set [1] in a line: Antioxidant activity assessed as DPPH radical scavenging activity by UV-Visible spectrophotometry. The class given is physicochemical.
The nature of data set [2]: Cytoprotection in mouse CRL2181 cells assessed as reduction in UV-oxidized LDL-induced cytotoxicity by measuring cell viability at 1 uM after 24 hrs by MTT assay relative to untreated control. It counts as functional.
A short description of data set [3]: Antioxidant activity assessed as reduction in mouse CRL2181 cells-mediated human LDL oxidation by measuring TBARS level at 10 uM after 18 hrs. The class given is physicochemical, cell-based. Further details: scale not given: the % may be the effect or the level left.
Data set [4] is described as follows: Cytoprotection in mouse CRL2181 cells assessed as reduction in UV-oxidized LDL-induced cytotoxicity by measuring cell viability at 10 uM after 24 hrs by MTT assay relative to untreated control. The class given is functional.
A short description of data set [5]: Antioxidant activity assessed as reduction in mouse CRL2181 cells-mediated human LDL oxidation by measuring TBARS level at 1 uM after 18 hrs. It counts as physicochemical, cell-based. The settings on record: read-out: Activity.
A short description of data set [6]: Antioxidant activity assessed as superoxide anion radical scavenging activity at 10 uM by PMS-NADH-NBT system based spectrophotometry. The class given is physicochemical.

Consider `COc1cc(/C=N/Nc2nncc3ccccc23)cc(OC)c1O`, for which, in data set [1], the pIC50 was 4.55. Moreover, the results for the Activity in data set [2], in data set [3] and in data set [4] were 46%, 4% and 66%, respectively. Further, the inhibition at 1 µM in data set [5] was 38%.
For `COc1cc(/C=N/NC(=O)OCc2ccccc2)cc(OC)c1O` the same measures were 4.22, 45%, 3%, 69% and 38%.
Regarding `COc1cc(/C=N/Nc2nc3ccccc3s2)cc(OC)c1O`, the Activity in data set [2] is 39%; in data set [3], 3%; in data set [6], 35%; in data set [4], 55%. Further, the inhibition at 1 µM in data set [5] turned out to be 36%.
Turning to `COc1cc(/C=N/NC(=O)c2ccncc2)cc(OC)c1O`, the pIC50 in data set [1] was 4.77. In addition, the Activity in data set [2] was determined as 34%; in data set [3], 7%; in data set [4], 65%. Moreover, the inhibition at 1 µM in data set [5] worked out at 48%.
As for `COc1cc(/C=N/Nc2nc3ccccc3s2)ccc1O`, the Activity is listed as 44% in data set [2], 7% in data set [3] and 61% in data set [4]. For the same compound, the inhibition at 1 µM in data set [5] was determined as 65%.
On to `COc1cc(/C=N/NC(=O)c2ccncc2)cc(OC)c1OC`, for which, in data set [1], the pIC50 was less than 3.00. For the same compound, the Activity in data set [2] was 4%; in data set [3], 94%; in data set [4], 4%. Moreover, in data set [5], the inhibition at 1 µM stood at 95%.
In the case of `COc1cc(/C=N/N2C(=O)CSC2=S)ccc1O`, the negative logarithm of the IC50 (pIC50) in data set [1] is 4.89. Also, the Activity in data set [2] was 34%; in data set [3] it was 5%; in data set [4], 72%. Moreover, the inhibition at 1 µM in data set [5] came out at 66%.
With `COc1cc(/C=N/Nc2nncc3ccccc23)cc(OC)c1OC.Cl`, in data set [1], the pIC50 was 4.40. The Activity in data set [2] worked out at 6%; in data set [3] it was 93%; in data set [4] it was 5%. Further, the inhibition at 1 µM in data set [5] worked out at 96%.
Turning to `COc1cc(/C=N/Nc2nncc3ccccc23)cc(O)c1O.Cl`, the Activity in data set [2] was found to be 69%; in data set [3] it was 3%; in data set [6], 36.7%; in data set [4], 97%. For the same compound, in data set [5], the inhibition at 1 µM was found to be 27%.
Take `COc1cc(/C=N/Nc2nncc3ccccc23)ccc1O.Cl`: the pIC50 in data set [1] was 4.70. For the same compound, the Activity in data set [2] was found to be 24%; in data set [3] it was 4%; in data set [4], 100%. Besides, the inhibition at 1 µM in data set [5] came out at 46%.
As to `Cl.Oc1ccc(/C=N/Nc2nncc3ccccc23)cc1O`, the negative-log IC50 (pIC50) in data set [1] was 5.17. Besides, the Activity in data set [2] amounted to 34%; in data set [3], 3%; in data set [4] it was 72%. For the same compound, the inhibition at 1 µM in data set [5] amounted to 51%.
Consider `COc1cc(/C=N/NC(=O)c2ccncc2)cc(O)c1O`, for which the pIC50 in data set [1] is 4.74. Besides, the Activity amounted to 41% in data set [2], 8% in data set [3] and 80% in data set [4]. The inhibition at 1 µM in data set [5] stood at 59%.
For `O=C(N/N=C/c1ccc(O)c(O)c1)c1ccncc1` the same measures were 5.21, 84%, 4%, 101% and 19%.
As for `COc1cc(/C=N/NC(=O)c2ccncc2)c(O)cc1O`, the negative-log IC50 (pIC50) in data set [1] was 4.82. In addition, the Activity was determined as 18% in data set [2], 82% in data set [3] and 20% in data set [4]. The inhibition at 1 µM in data set [5] came to 87%.
Regarding `COc1cc(/C=N/NC(=O)OCc2ccccc2)cc(OC)c1OC`, the pIC50 in data set [1] was less than 3.00. Also, the values for the Activity in data set [2], in data set [3] and in data set [4] were 5%, 100% and 4%, respectively. Moreover, the inhibition at 1 µM in data set [5] is 95%.
Turning to `COc1cc(/C=N/NC(=O)OCc2ccccc2)cc(O)c1O`, in data set [1], the negative-log IC50 (pIC50) was 4.67. For the same compound, the Activity in data set [2] came out at 34%; in data set [3], 2%; in data set [6] it was 41.4%; in data set [4], 57%. In addition, in data set [5], the inhibition at 1 µM is 17%.
For the compound `COc1cc(/C=N/NC(=O)OCc2ccccc2)ccc1O`, the pIC50 in data set [1] was 4.40. The results for the Activity in data set [2], in data set [3] and in data set [4] were 73%, 36% and 73%, respectively. Besides, the inhibition at 1 µM in data set [5] turned out to be 75%.
With `O=C(N/N=C/c1ccc(O)c(O)c1)OCc1ccccc1`, the pIC50 in data set [1] is 5.14. In addition, the figures for the Activity in data set [2], in data set [3] and in data set [4] were 48%, 6% and 84%, respectively. In data set [5], the inhibition at 1 µM is 27%.
Take `O=C(N/N=C/c1ccccc1O)OCc1ccccc1`: the pIC50 in data set [1] is less than 3.00. Further, the Activity was found to be 24% in data set [2], 104% in data set [3] and 34% in data set [4]. In data set [5], the inhibition at 1 µM is 106%.
For the compound `COc1cc(/C=N/NC(=O)OCc2ccccc2)c(O)cc1O`, in data set [1], the negative-log IC50 (pIC50) was 4.87. Further, the results for the Activity in data set [2], in data set [3] and in data set [4] were 43%, 6% and 79%, respectively. Further, the inhibition at 1 µM in data set [5] was determined as 74%.
For `COc1cc(/C=N/N(C)C(=O)OCc2ccccc2)cc(OC)c1O.Cl`, in data set [1], the pIC50 was 3.92. Further, the Activity was found to be 55% in data set [2], 5% in data set [3] and 64% in data set [4]. Moreover, the inhibition at 1 µM in data set [5] was 10%.
For `COc1cc(/C=N/N(C)C(=O)OCc2ccccc2)cc(OC)c1OC.Cl` the same measures were less than 5.15, 6%, 90%, 6% and 98%.
For the compound `COc1cc(/C=N/N(C)C(=O)OCc2ccccc2)ccc1O.Cl`, the pIC50 in data set [1] was 4.58. Besides, the Activity in data set [2] was found to be 41%; in data set [3], 5%; in data set [4], 71%. The inhibition at 1 µM in data set [5] worked out at 58%.
Regarding `COc1cc(/C=N/Nc2nc3ccccc3s2)cc(OC)c1OC`, the pIC50 in data set [1] is 4.37. Further, the Activity worked out at 4% in data set [2], 14% in data set [3], 34% in data set [6] and 57% in data set [4]. Besides, the inhibition at 1 µM in data set [5] is 100%.
`Oc1ccc(/C=N/Nc2nc3ccccc3s2)cc1O`: the Activity is on record as 33% in data set [2], 7% in data set [3], 41.7% in data set [6] and 57% in data set [4]. In addition, the inhibition at 1 µM in data set [5] turned out to be 44%.
Turning to `COc1cc(/C=N/Nc2nc3ccccc3s2)cc(O)c1O`, in data set [1], the pIC50 is 5.17. Moreover, the Activity was determined as 38% in data set [2], 7% in data set [3] and 54% in data set [4]. Besides, the inhibition at 1 µM in data set [5] stood at 56%.
With `COc1cc(/C=N/N(C)c2nc3ccccc3s2)cc(OC)c1O`, the Activity in data set [2] was 107%; in data set [3], 3%; in data set [6], 43.3%; in data set [4] it was 110%. Besides, in data set [5], the inhibition at 1 µM turned out to be 5%.
`COc1cc(/C=N/N(C)c2nc3ccccc3s2)cc(OC)c1OC`: the pIC50 in data set [1] was less than 3.00. Also, the Activity in data set [2] was 7%; in data set [3], 82%; in data set [4] it was 7%. In data set [5], the inhibition at 1 µM is 84%.
Consider `COc1cc(/C=N/N(C)c2nc3ccccc3s2)ccc1O`, for which the pIC50 in data set [1] was 4.58. In addition, the Activity was 96% in data set [2], 9% in data set [3] and 96% in data set [4]. Besides, in data set [5], the inhibition at 1 µM was determined as 20%.
Consider `COc1cc(/C=N/N2C(=O)CSC2=S)cc(OC)c1O`, for which, in data set [1], the pIC50 is 4.93. The Activity turned out to be 53% in data set [2], 5% in data set [3] and 85% in data set [4]. In addition, in data set [5], the inhibition at 1 µM is 59%.
With `O=C1CSC(=S)N1/N=C/c1ccccc1O`, the pIC50 in data set [1] was 4.88. Besides, the Activity in data set [2] worked out at 26%; in data set [3] it was 5%; in data set [4] it was 87%. For the same compound, the inhibition at 1 µM in data set [5] was 79%.
On to `Cc1c(C)c2c(c(C)c1O)CC[C@@](C)(CCC[C@H](C)CCC[C@H](C)CCCC(C)C)O2` [ALPHA-TOCOPHEROL], for which the Activity in data set [3] is 55%; in data set [4] it was 47%. Also, the inhibition at 1 µM in data set [5] amounted to 78%.
On to `O=C(/C=C/c1ccc(O)c(O)c1)O[C@@H]1C[C@](O)(C(=O)O)C[C@@H](O)[C@H]1O` [CHLOROGENIC ACID], for which, in data set [6], the Activity is on record as 35.5%.
With `COc1cc(/C=N/NC(=O)c2ccncc2)ccc1O` [FTIVAZIDE], the pIC50 in data set [1] is 4.07. Also, the results for the Activity in data set [2], in data set [3] and in data set [4] were 36%, 95% and 63%, respectively. Also, the inhibition at 1 µM in data set [5] was 90%.
The corresponding values for `O=C(N/N=C/c1ccccc1O)c1ccncc1` [SALINAZID] are less than 3.00, 20%, 31%, 24% and 75%.
Regarding `Cc1c(C)c2c(c(C)c1O)CCC(C)(C(=O)O)O2` (stereo unspecified) [TROLOX], the pIC50 in data set [1] is 4.70. The Activity in data set [2] was 50%; in data set [3], 33%; in data set [6], 22.2%; in data set [4] it was 76%. Moreover, the inhibition at 1 µM in data set [5] was 69%.
